Read-outs that look alike come from different tables or passages of the source.
Key:
[1] = system: Leishmania tarentolae promastigotes (LtP); assay: Resazurin viability assay in Leishmania tarentolae promastigotes; type: cell-based
Procedure: Leishmania tarentolae promastigotes (LtP) strain P10 from Jena Bioscience (Jena, Germany) were cultivated in brain heart infusion (BHI) medium (37 g/L) that was supplemented with 5 mg/L hemin, 25,000 U/L penicillin and 25 mg/L streptomycin at 26 °C. LtP were always used one day after being passaged, when the cells were in the logarithmic growth phase. The cell count was determined by measuring the optical density (OD) at a wavelength of 600 nm using a U1100 photometer (Hitachi, Tokyo, Japan). The number of the cells was subsequently calculated according to a calibration curve.
LtP (2 × 10^6 cells/mL) in a mixture of YEM and PBS (1:1, v/v) containing 25,000 U/L penicillin, 25 mg/L streptomycin, and 6 µM hemin (YEM/PBS) were prepared. Aliquots of 200 µL of this suspension were distributed in 96-well plates. Control rows containing YEM/PBS (no activity) and with untreated LtP (100% activity) were also loaded on the plate. To the wells of third rows, compounds (leading to a final vehicle concentration of max. 2% dimethyl sulfoxide (DMSO) in the wells) were added. Subsequently, five 1:5 serial dilution steps were performed. The plates were incubated at 26 °C for 48 h. Following the incubation, 50 µL of a resazurin solution in PBS were added to each well, giving a final concentration of 20 µM. After 4 h of incubation, the fluorescence was measured at 560 nm excitation and 590 nm emission using a plate reader (Perkin Elmer Enspire, Germany). The resazurin assays with J774 cells were performed in analogy to the LtP resazurin assays. Aliquots of a J774 cell suspension in DMEM supplemented with 25,000 U/L penicillin, 25 mg/L streptomycin, and 10% FCS (heat-inactivated), giving a final cell concentration of 10^5 cells/mL, were distributed in the wells of the 96-well microplates. The cells were incubated for 24 h (37 °C, 5% CO2) to allow attachment. Then the medium was discarded and non-adherent cells were removed with 200 µL PBS per well. After the addition of DMEM, the compounds were added, and a serial dilution was performed. Control rows with DMEM (no activity) and with untreated J774 cells (100% activity) were also included. The plates were incubated again for 24 h at 37 °C and 5% CO2. Then the addition of resazurin and the measurement of fluorescence were carried out in analogy to the viability assays performed in LtP.
Calculations were carried out using Microsoft Excel (Microsoft). The graphs were created using Origin 6.1 (OriginLab Corporation, Northampton, MA, USA). The half maximal inhibitory concentrations (IC50) were determined from non-linear concentration–response curves using a four-parameter logistic model and expressed as the mean ± standard deviation (SD). Statistically significant differences of p <0.05 were identified using Students t-test.

LtP = assay: EPR spin trapping (DMPO): activation of AcEPs by LtP; type: cell-based, Leishmania tarentolae; conditions: 500 µM compound, 2 × 10^9 LtP/mL, 40 mM DMPO, 15 min, no added iron
Procedure: To detect the radicals derived from AcEPs in LtP, EPR experiments were performed using DMPO as spin trap. Aliquots of the cell broth were transferred into Sarstedt tubes that were centrifuged (20 °C, 1800× g, 10 min), and the supernatants were discarded. Then the cell pellets were resuspended in PBS and centrifuged again. After removal of the supernatants, the cell pellets were resuspended in a mixture of PBS containing glucose (15 mM), giving a final cell number of 2 × 10^9 LtP/mL. Aliquots (150 µL) were incubated in 1.5 mL Eppendorf tubes with aeration holes. The cells were incubated with DMPO (40 mM) for 5 min at 26 °C, and after addition of 500 µM of the respective substance (Asc, AcEP1117, AcEP1118, AcEP1129, AcEP1130, Ac or AQ), the samples were incubated for additional 15 min at 26 °C under constant agitation (agitation speed: 0.3 s^−1). Control samples containing LtP, LtP and DMSO (1.27%, v/v), or PBS/glucose alone were incubated with 40 mM DMPO under the same conditions. Cell samples containing DMPO that were treated with Asc served as positive control. Samples treated with Ac or AQ were used as negative controls. Subsequently, 50 µL of the samples were aspirated into glass capillaries and transferred in the MD5 resonator of the EPR spectrometer. The samples were measured immediately using the following instrument settings: microwave frequency 9.684 GHz; microwave power 20 mW, modulation frequency 100 kHz; modulation amplitude 2 G; time constant 0.164 s; center field 3449 G; scan rate 71 G/min; sweep width 100 G; scan time 84 s; attenuation 8.93 × 10^5; and scans 3.

[2] = Leishmania tarentolae, 48 h, resazurin assay, endpoint at 48 h, 2 × 10^6 LtP/mL, read-out: IC50 (µM) Mean ± SD LtP

| IC50 [1, 2] [µM] | IC50 ([1]; Leishmania tarentolae, 48 h, read-out: IC50 (µM) Mean ± SD LtP, resazurin assay, endpoint at 48 h, 2 × 10^6 LtP/mL) [µM] | IC50 ([1]; resazurin assay, endpoint at 48 h, 2 × 10^6 LtP/mL, read-out: IC50 (µM) Mean ± SD LtP) [µM] | Compound | DMPO spin adduct formation in LtP (EPR) (LtP) |
| --- | --- | --- | --- | --- |
| 1 ± 0.73 |  |  | CC12OOC(C)(c3ccccc31)c1ccccc12 [AcEP1118, 9,10-dimethyl-9,10-dihydro-9,10-epidioxidoanthracene] | a moderate intensity DMPO spin adduct was observed |
| 0.22 ± 0.09 |  |  | CCc1ccc2c(c1)C1OOC2c2ccccc21 (centres unmarked) [AcEP1130, 2-ethyl-9,10-dihydro-9,10-epidioxidoanthracene] | no spin adducts were observed |
|  | > 400 |  | c1ccc2cc3ccccc3cc2c1 [Ac, anthracene] | neither Ac nor AQ resulted in detectable DMPO spin adducts |
| 5.72 ± 1.92 |  |  | c1ccc2c(c1)C1OOC2c2ccccc21 [AcEP1117, 9,10-dihydro-9,10-epidioxidoanthracene] | no spin adducts were observed |
| < 1 |  | 0.84 ± 0.43 | N=C(N)c1ccc(OCCCCCOc2ccc(C(=N)N)cc2)cc1 [Pen, pentamidine, reference compound] |  |

| Compound | IC50 [1, 2] [µM] | IC50 ([1]; Leishmania tarentolae, 48 h, read-out: IC50 (µM) Mean ± SD LtP, resazurin assay, endpoint at 48 h, 2 × 10^6 LtP/mL) [µM] | IC50 ([1]; resazurin assay, endpoint at 48 h, 2 × 10^6 LtP/mL, read-out: IC50 (µM) Mean ± SD LtP) [µM] | DMPO spin adduct formation in LtP (EPR) (LtP) |
| --- | --- | --- | --- | --- |
| O=C1c2ccccc2C(=O)c2ccccc21 [AQ, anthraquinone, reference compound] | 103 ± 17.8 |  |  | neither Ac nor AQ resulted in detectable DMPO spin adducts |
| CC12OOC(c3ccccc31)c1ccccc12 [AcEP1129, 9-methyl-9,10-dihydro-9,10-epidioxidoanthracene] | 0.61 ± 0.21 |  |  | high intensity EPR spectra of spin adducts were observed |
